Results: ChEMBL document CHEMBL5512619, “Anticancer mechanism of coumarin-based derivatives” (Eur J Med Chem, 2024)
Blank lines part the entries; values can stand above or below the compound they belong to.

How the values were obtained:
Carbonic anhydrase 1 = Carbonic anhydrase 1 (Homo sapiens, UniProt P00915); experiment: Binding affinity to human CA1 assessed as inhibition constant incubated for 10 mins by phenol red dye based stopped flow CO2 hydration assay
Carbonic anhydrase 2 = Carbonic anhydrase 2 (Homo sapiens, UniProt P00918); experiment: Binding affinity to human CA2 assessed as inhibition constant incubated for 10 mins by phenol red dye based stopped flow CO2 hydration assay
HeLa [1] = experiment: Cytotoxicity against human HeLa cells; type: functional, cell-based
[2] = Cytotoxicity against human Lu1 cells; type: functional, cell-based
[3] = molecular target: Epidermal growth factor receptor (Homo sapiens, UniProt P00533); experiment: Inhibition of EGFR (unknown origin)
HepG2 [4] = experiment: Cytotoxicity against human HepG2 cells; type: functional, cell-based
[5] = molecular target: Receptor tyrosine-protein kinase erbB-2 (Homo sapiens, UniProt P04626); experiment: Inhibition of HER2 (unknown origin)
SK-MEL-2 = experiment: Antiproliferative activity against human SK-MEL-2 cells assessed as inhibition of cell growth after 72 hrs by MTT assay; type: functional, cell-based; conditions: SK-MEL-2, 72 h
[6] = Antiproliferative activity against human Lu1 cells assessed as inhibition of cell growth after 72 hrs by MTT assay; type: functional, cell-based; conditions: Lu1, 72 h
HeLa [7] = experiment: Antiproliferative activity against human HeLa cells assessed as inhibition of cell growth after 72 hrs by MTT assay; type: functional, cell-based
MCF7 = experiment: Antiproliferative activity against human MCF7 cells assessed as inhibition of cell growth after 72 hrs by MTT assay; type: functional, cell-based; conditions: MCF7, 72 h
HepG2 [8] = experiment: Antiproliferative activity against human HepG2 cells assessed as inhibition of cell growth after 72 hrs by MTT assay; type: functional, cell-based; conditions: HepG2, 72 h
[9] = Cytotoxicity against human Lu1 cells incubated for 72 hrs by MTT assay; type: functional, cell-based; conditions: Lu1, 72 h
HeLa [10] = experiment: Cytotoxicity against human HeLa cells incubated for 72 hrs by MTT assay; type: functional, cell-based
HepG2 [11] = experiment: Cytotoxicity against human HepG2 cells incubated for 72 hrs by MTT assay; type: functional, cell-based; conditions: HepG2, 72 h

Sequence of Carbonic anhydrase 1 (P00915 whole entry): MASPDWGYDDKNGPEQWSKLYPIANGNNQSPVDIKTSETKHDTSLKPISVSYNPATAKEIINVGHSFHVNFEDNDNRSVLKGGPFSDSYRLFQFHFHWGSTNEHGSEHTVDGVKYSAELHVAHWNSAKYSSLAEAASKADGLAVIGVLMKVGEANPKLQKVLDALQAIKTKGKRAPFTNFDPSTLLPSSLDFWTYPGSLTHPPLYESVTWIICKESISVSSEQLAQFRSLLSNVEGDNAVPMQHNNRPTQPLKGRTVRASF
Sequence of Epidermal growth factor receptor (P00533 whole entry): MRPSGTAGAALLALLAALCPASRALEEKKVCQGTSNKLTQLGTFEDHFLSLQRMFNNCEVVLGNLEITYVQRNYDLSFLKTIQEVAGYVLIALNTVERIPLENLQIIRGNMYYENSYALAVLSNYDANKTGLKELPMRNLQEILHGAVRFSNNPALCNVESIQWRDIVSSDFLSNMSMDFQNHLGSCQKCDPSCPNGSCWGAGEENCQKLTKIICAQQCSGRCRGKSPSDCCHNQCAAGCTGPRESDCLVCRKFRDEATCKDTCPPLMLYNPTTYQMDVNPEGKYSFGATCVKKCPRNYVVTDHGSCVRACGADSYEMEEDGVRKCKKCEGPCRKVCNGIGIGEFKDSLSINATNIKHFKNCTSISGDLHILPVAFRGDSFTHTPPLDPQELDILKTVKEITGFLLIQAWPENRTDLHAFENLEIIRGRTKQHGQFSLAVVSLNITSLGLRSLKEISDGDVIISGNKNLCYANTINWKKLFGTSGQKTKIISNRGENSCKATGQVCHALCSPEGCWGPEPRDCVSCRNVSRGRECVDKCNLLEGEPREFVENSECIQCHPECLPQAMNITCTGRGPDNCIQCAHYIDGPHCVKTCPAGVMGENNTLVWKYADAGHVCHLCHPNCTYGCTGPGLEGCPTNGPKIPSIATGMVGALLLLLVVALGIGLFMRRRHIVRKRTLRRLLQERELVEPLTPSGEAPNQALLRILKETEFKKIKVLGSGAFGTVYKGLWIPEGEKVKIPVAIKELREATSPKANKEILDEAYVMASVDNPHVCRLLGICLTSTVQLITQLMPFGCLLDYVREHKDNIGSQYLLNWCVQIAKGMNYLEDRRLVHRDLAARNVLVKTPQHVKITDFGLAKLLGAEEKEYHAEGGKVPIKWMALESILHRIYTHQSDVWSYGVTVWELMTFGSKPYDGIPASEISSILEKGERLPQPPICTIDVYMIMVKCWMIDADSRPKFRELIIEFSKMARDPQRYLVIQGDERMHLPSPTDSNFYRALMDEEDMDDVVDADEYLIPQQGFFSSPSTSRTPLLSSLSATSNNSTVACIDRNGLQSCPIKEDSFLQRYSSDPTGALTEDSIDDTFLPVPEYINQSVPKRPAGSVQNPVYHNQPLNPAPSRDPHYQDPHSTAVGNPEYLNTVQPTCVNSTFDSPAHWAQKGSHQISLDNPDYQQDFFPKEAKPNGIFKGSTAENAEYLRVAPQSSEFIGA
Sequence of Receptor tyrosine-protein kinase erbB-2 (P04626 whole entry): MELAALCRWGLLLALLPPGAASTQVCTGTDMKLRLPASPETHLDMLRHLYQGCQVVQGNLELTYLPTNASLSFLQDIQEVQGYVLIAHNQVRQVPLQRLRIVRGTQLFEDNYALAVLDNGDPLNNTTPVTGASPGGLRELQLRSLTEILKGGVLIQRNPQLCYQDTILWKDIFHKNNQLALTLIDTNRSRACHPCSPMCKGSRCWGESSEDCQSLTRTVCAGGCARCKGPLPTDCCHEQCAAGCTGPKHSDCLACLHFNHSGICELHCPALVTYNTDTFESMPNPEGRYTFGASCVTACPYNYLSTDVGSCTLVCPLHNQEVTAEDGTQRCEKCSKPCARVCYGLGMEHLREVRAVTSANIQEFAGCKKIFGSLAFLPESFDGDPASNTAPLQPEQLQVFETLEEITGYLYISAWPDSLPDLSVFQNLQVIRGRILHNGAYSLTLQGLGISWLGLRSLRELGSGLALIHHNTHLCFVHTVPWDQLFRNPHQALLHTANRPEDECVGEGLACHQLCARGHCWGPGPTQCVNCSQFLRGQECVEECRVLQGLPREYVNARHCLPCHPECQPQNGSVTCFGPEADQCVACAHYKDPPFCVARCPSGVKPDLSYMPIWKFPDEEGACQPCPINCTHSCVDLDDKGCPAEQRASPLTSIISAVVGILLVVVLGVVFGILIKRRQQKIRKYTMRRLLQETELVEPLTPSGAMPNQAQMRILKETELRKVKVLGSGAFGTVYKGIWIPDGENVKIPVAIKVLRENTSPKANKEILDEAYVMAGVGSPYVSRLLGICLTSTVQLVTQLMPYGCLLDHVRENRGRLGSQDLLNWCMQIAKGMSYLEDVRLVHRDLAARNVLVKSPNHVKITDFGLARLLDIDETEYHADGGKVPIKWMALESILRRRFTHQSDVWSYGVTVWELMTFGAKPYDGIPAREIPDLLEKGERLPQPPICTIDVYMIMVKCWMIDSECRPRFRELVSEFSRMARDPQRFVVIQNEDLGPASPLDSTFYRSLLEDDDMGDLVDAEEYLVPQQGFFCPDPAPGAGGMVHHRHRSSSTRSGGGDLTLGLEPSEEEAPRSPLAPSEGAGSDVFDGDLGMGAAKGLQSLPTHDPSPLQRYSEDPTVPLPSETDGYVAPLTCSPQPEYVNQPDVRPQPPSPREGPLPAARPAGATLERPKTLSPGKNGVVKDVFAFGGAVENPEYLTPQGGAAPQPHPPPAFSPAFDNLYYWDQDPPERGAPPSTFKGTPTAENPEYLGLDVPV

Structure (SMILES): O=C(Nc1ccc2c(c1)C=CS(=O)(=O)O2)c1ccc(F)c(S(=O)(=O)N2CCOCC2)c1
Ki (Carbonic anhydrase 1): 0.0994 µM
Ki (Carbonic anhydrase 2): 0.0994 µM

Structure (SMILES): C[C@@H]1CN(S(=O)(=O)c2cc(C(=O)Nc3ccc4c(c3)C=CS(=O)(=O)O4)ccc2Cl)C[C@H](C)S1
Ki (Carbonic anhydrase 1): 0.0994 µM
Ki (Carbonic anhydrase 2): 0.0994 µM

Structure (SMILES): CC(=O)OC[C@H]1O[C@@H](n2c(-c3ccccc3)cs/c2=N\N=C\c2cc(=O)oc3cc(C)ccc23)[C@H](OC(C)=O)[C@@H](OC(C)=O)[C@@H]1OC(C)=O
IC50 (HeLa [1]): 1.18 µM
IC50 [2]: 1.18 µM
IC50 (HepG2 [4]): 1.18 µM

Structure (SMILES): O=C(Nc1ccc2c(c1)C=CS(=O)(=O)O2)c1ccc(Cl)c(S(=O)(=O)N2CCCCC2)c1
Ki (Carbonic anhydrase 1): 0.0994 µM
Ki (Carbonic anhydrase 2): 0.0994 µM

Structure (SMILES): COc1ccc(C(=O)Nc2ccc3c(c2)C=CS(=O)(=O)O3)cc1S(=O)(=O)N1CCCC1
Ki (Carbonic anhydrase 1): 0.0994 µM
Ki (Carbonic anhydrase 2): 0.0994 µM

Structure (SMILES): O=C(Nc1ccc2c(c1)C=CS(=O)(=O)O2)c1ccc(Cl)c(S(=O)(=O)N2CCOCC2)c1
Ki (Carbonic anhydrase 1): 0.0994 µM
Ki (Carbonic anhydrase 2): 0.0994 µM

Structure (SMILES): O=C(Nc1ccc2c(c1)C=CS(=O)(=O)O2)c1ccc(F)c(S(=O)(=O)N2CCCC2)c1
Ki (Carbonic anhydrase 1): 0.0994 µM
Ki (Carbonic anhydrase 2): 0.0994 µM

Structure (SMILES): CC(=O)OC[C@H]1O[C@@H](n2c(-c3ccccc3)cs/c2=N\N=C(/C)c2cc3ccccc3oc2=O)[C@H](OC(C)=O)[C@@H](OC(C)=O)[C@@H]1OC(C)=O
IC50 (HeLa [1]): 1.18 µM
IC50 [2]: 1.18 µM
IC50 (HepG2 [4]): 1.18 µM

Structure (SMILES): Cc1ccc(C(=O)Nc2ccc3c(c2)C=CS(=O)(=O)O3)cc1S(=O)(=O)N1CCCC1
Ki (Carbonic anhydrase 1): 0.0994 µM
Ki (Carbonic anhydrase 2): 0.0994 µM

Structure (SMILES): COc1ccc(C(=O)Nc2ccc3c(c2)C=CS(=O)(=O)O3)cc1S(=O)(=O)N1CCSCC1
Ki (Carbonic anhydrase 1): 0.0994 µM
Ki (Carbonic anhydrase 2): 0.0994 µM

Continued, in another order:

Ki (Carbonic anhydrase 1): 0.0994 µM
Ki (Carbonic anhydrase 2): 0.0994 µM
Structure (SMILES): C[C@@H]1CN(S(=O)(=O)c2cc(C(=O)Nc3ccc4c(c3)C=CS(=O)(=O)O4)ccc2F)C[C@H](C)O1

IC50 [3]: 0.15 µM
IC50 [5]: 0.15 µM
Structure (SMILES): CC(=O)OC[C@H]1O[C@@H](n2c(-c3ccccc3)cs/c2=N\N=C\c2cc(=O)oc3cc(OCCC(C)C)ccc23)[C@H](OC(C)=O)[C@@H](OC(C)=O)[C@@H]1OC(C)=O
IC50 (HeLa [1]): 1.18 µM
IC50 [2]: 1.18 µM
IC50 (HepG2 [4]): 1.18 µM

IC50 (SK-MEL-2): 1.28 µM
IC50 (HeLa [7]): 1.28 µM
IC50 (MCF7): 1.28 µM
IC50 (HepG2 [8]): 1.28 µM
Structure (SMILES): CC(=O)OC[C@H]1O[C@@H](NC(=S)N/N=C(\C)c2cc3ccc(C)cc3oc2=O)[C@H](OC(C)=O)[C@@H](OC(C)=O)[C@H]1OC(C)=O
IC50 [6]: 1.28 µM

IC50 (SK-MEL-2): 1.28 µM
IC50 (HeLa [7]): 1.28 µM
IC50 (MCF7): 1.28 µM
IC50 (HepG2 [8]): 1.28 µM
Structure (SMILES): CC(=O)OC[C@H]1O[C@@H](NC(=S)N/N=C(\C)c2cc3cc(Br)ccc3oc2=O)[C@H](OC(C)=O)[C@@H](OC(C)=O)[C@H]1OC(C)=O
IC50 [6]: 1.28 µM

IC50 (SK-MEL-2): 1.28 µM
IC50 (HeLa [7]): 1.28 µM
IC50 (MCF7): 1.28 µM
IC50 (HepG2 [8]): 1.28 µM
Structure (SMILES): CC(=O)OC[C@H]1O[C@@H](NC(=S)N/N=C(\C)c2cc3cc(C)ccc3oc2=O)[C@H](OC(C)=O)[C@@H](OC(C)=O)[C@H]1OC(C)=O
IC50 [6]: 1.28 µM

IC50 [3]: 0.22 µM
IC50 [5]: 0.13 µM
Structure (SMILES): CCOc1ccc2oc(=O)cc(C3SC(N(C(C)=O)[C@@H]4O[C@H](COC(C)=O)[C@H](OC(C)=O)[C@H](OC(C)=O)[C@H]4OC(C)=O)=NN3C(C)=O)c2c1 (stereo partly drawn)
IC50 [9]: 1.18 µM
IC50 (HeLa [10]): 1.18 µM
IC50 (HepG2 [11]): 1.18 µM

Ki (Carbonic anhydrase 1): 0.0994 µM
Ki (Carbonic anhydrase 2): 0.0994 µM
Structure (SMILES): COc1ccc(C(=O)Nc2ccc3c(c2)C=CS(=O)(=O)O3)cc1S(=O)(=O)N1C[C@@H](C)O[C@@H](C)C1

Ki (Carbonic anhydrase 1): 0.0994 µM
Ki (Carbonic anhydrase 2): 0.0994 µM
Structure (SMILES): COc1ccc(C(=O)Nc2ccc3c(c2)C=CS(=O)(=O)O3)cc1S(=O)(=O)N1CCOCC1

IC50 (SK-MEL-2): 1.28 µM
IC50 (HeLa [7]): 1.28 µM
IC50 (MCF7): 1.28 µM
IC50 (HepG2 [8]): 1.28 µM
Structure (SMILES): CC(=O)OC[C@H]1O[C@@H](NC(=S)N/N=C(\C)c2c(C)c3ccc(O)cc3oc2=O)[C@H](OC(C)=O)[C@@H](OC(C)=O)[C@H]1OC(C)=O
IC50 [6]: 1.28 µM

IC50 [3]: 0.22 µM
IC50 [5]: 0.13 µM
Structure (SMILES): CCCCOc1ccc2oc(=O)cc(C3SC(N(C(C)=O)[C@@H]4O[C@H](COC(C)=O)[C@@H](OC(C)=O)[C@H](OC(C)=O)[C@H]4OC(C)=O)=NN3C(C)=O)c2c1 (stereo partly drawn)
IC50 [9]: 1.18 µM
IC50 (HeLa [10]): 1.18 µM
IC50 (HepG2 [11]): 1.18 µM

IC50 (SK-MEL-2): 1.28 µM
IC50 (HeLa [7]): 1.28 µM
IC50 (MCF7): 1.28 µM
IC50 (HepG2 [8]): 1.28 µM
Structure (SMILES): CC(=O)OC[C@H]1O[C@@H](NC(=S)N/N=C(\C)c2cc3cc(Cl)ccc3oc2=O)[C@H](OC(C)=O)[C@@H](OC(C)=O)[C@H]1OC(C)=O
IC50 [6]: 1.28 µM

IC50 (SK-MEL-2): 1.28 µM
IC50 (HeLa [7]): 1.28 µM
IC50 (MCF7): 1.28 µM
IC50 (HepG2 [8]): 1.28 µM
Structure (SMILES): CC(=O)OC[C@H]1O[C@@H](NC(=S)N/N=C(\C)c2c(C)c3ccccc3oc2=O)[C@H](OC(C)=O)[C@@H](OC(C)=O)[C@H]1OC(C)=O
IC50 [6]: 1.28 µM

IC50 [3]: 0.15 µM
IC50 [5]: 0.15 µM
Structure (SMILES): CCCCCOc1ccc2oc(=O)cc(/C=N/N=c3\scc(-c4ccccc4)n3[C@@H]3O[C@H](COC(C)=O)[C@@H](OC(C)=O)[C@H](OC(C)=O)[C@H]3OC(C)=O)c2c1
IC50 (HeLa [1]): 1.18 µM
IC50 [2]: 1.18 µM
IC50 (HepG2 [4]): 1.18 µM

IC50 (SK-MEL-2): 1.28 µM
IC50 (HeLa [7]): 1.28 µM
IC50 (MCF7): 1.28 µM
IC50 (HepG2 [8]): 1.28 µM
Structure (SMILES): CC(=O)OC[C@H]1O[C@@H](NC(=S)N/N=C(\C)c2c(O)c3cccc(C)c3oc2=O)[C@H](OC(C)=O)[C@@H](OC(C)=O)[C@H]1OC(C)=O
IC50 [6]: 1.28 µM
